Test results from PubChem BioAssay (NCI).
Values joined by “and” are separate entries in the source; they are usually repeats but may differ in a detail not shown here. Equal entries are not always repeated.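 Where inhibition never reached the appropriate level, the endpoint shown equals the highest concentration tested. Otherwise, values were interpolated linearly from a five-concentration, 48-hour dose response in 96-well plates. GI50 is the concentration that inhibits growth by half. Definition used: TGI = concentration required for complete inhibition of growth.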

Assays:
Test in all cases: growth of human tumour cells (NCI), 48 h
U251 CNS = tested on: U251 CNS
CCRF-CEM leukemia = tested on: CCRF-CEM leukemia
HS 578T breast = tested on: HS 578T breast
UO-31 renal = tested on: UO-31 renal
MCF7 breast = tested on: MCF7 breast
NCI-H226 lung = tested on: NCI-H226 lung
SK-MEL-2 melanoma = tested on: SK-MEL-2 melanoma
RXF 393 renal = tested on: RXF 393 renal
NCI-H23 lung = tested on: NCI-H23 lung
K-562 leukemia = tested on: K-562 leukemia

CC(C)=CC(=O)N[C@H]1CC[C@]2(C)C3CC[C@]4(C)C(C(C)N(C)C)=CCC4C3CCC2[C@H]1O (stereo partly specified) gave a GI50 (U251 CNS) of 3890 nM, a TGI (U251 CNS) of 15900 nM and a GI50 (CCRF-CEM leukemia) of 2920 nM. For the same molecule, the TGI (CCRF-CEM leukemia) was 14.3 µM, the GI50 (HS 578T breast) was 4.25 µM and the TGI (HS 578T breast) was 18.8 µM. The GI50 (UO-31 renal) was 1880 nM, the TGI (UO-31 renal) was 4.51 µM and the GI50 (MCF7 breast) was 3060 nM. It also gave a TGI (MCF7 breast) of 13.6 µM, a GI50 (NCI-H226 lung) of 8.49 µM and a TGI (NCI-H226 lung) of 25.7 µM. It also gave a GI50 (SK-MEL-2 melanoma) of 12.4 µM, a TGI (SK-MEL-2 melanoma) of 28.7 µM and a GI50 (RXF 393 renal) of 2700 nM. It also gave a TGI (RXF 393 renal) of 9.74 µM, a GI50 (NCI-H23 lung) of 9.27 µM and a TGI (NCI-H23 lung) of 22.7 µM. For the same molecule, the GI50 (K-562 leukemia) was 1580 nM and the TGI (K-562 leukemia) was 4.52 µM.

CO[C@H]1C[C@](C)(O)Cc2cc3c(c(O)c21)C(=O)c1c(O)cc2c(c1C3=O)O[C@@H]1O[C@@]2(C)[C@H](O)[C@@H](N(C)C)[C@@H]1O was tested, and the GI50 (U251 CNS) was 461 nM, the TGI (U251 CNS) was 1580 nM and 2480 nM and the GI50 (CCRF-CEM leukemia) was 180 nM. The TGI (CCRF-CEM leukemia) was 1.22 µM and 4.21 µM, the TGI (HS 578T breast) was 22.6 µM and the GI50 (UO-31 renal) was 1330 nM. For the same molecule, the TGI (UO-31 renal) was 2.85 µM and 7.08 µM, the TGI (MCF7 breast) was 8.86 µM and the TGI (NCI-H226 lung) was 3.26 µM and 5.15 µM. For the same molecule, the TGI (SK-MEL-2 melanoma) was 5.09 µM and 5.82 µM, the GI50 (RXF 393 renal) was 1900 nM and the TGI (RXF 393 renal) was 4.01 µM and 4.21 µM. The TGI (NCI-H23 lung) was 2.03 µM and 6.54 µM and the TGI (K-562 leukemia) was 6.65 µM and 15.7 µM.

For O=C(C#Cc1ccccc1)C1=Cc2ccccc2OC1, the TGI (U251 CNS) was > 100000 nM, the TGI (CCRF-CEM leukemia) was 0.528 µM and the TGI (HS 578T breast) was 23.8 µM. It also gave a TGI (UO-31 renal) of 5.34 µM, a TGI (MCF7 breast) of 3.87 µM and a TGI (NCI-H226 lung) of 8.36 µM. The TGI (SK-MEL-2 melanoma) was 11.7 µM, the TGI (RXF 393 renal) was 9.78 µM and the TGI (NCI-H23 lung) was 5.47 µM. For the same molecule, the TGI (K-562 leukemia) was > 100 µM.

With COc1ccc(/C(C#N)=C/c2cc(OC)c(OC)c(OC)c2)cc1 the GI50 (U251 CNS) was 26200 nM, the TGI (U251 CNS) was > 100000 nM and the GI50 (CCRF-CEM leukemia) was 22100 nM. For the same molecule, the TGI (CCRF-CEM leukemia) was 78.6 µM, the GI50 (HS 578T breast) was 38.7 µM and the TGI (HS 578T breast) was > 100 µM. The GI50 (UO-31 renal) was 15300 nM, the TGI (UO-31 renal) was 68.8 µM and the GI50 (MCF7 breast) was 11100 nM. For the same molecule, the TGI (MCF7 breast) was > 100 µM, the GI50 (NCI-H226 lung) was 29.1 µM and the TGI (NCI-H226 lung) was > 100 µM. The GI50 (SK-MEL-2 melanoma) was 21.9 µM, the TGI (SK-MEL-2 melanoma) was 82.2 µM and the GI50 (RXF 393 renal) was 20600 nM. The TGI (RXF 393 renal) was > 100 µM, the GI50 (NCI-H23 lung) was 20.1 µM and the TGI (NCI-H23 lung) was 88.4 µM. For the same molecule, the GI50 (K-562 leukemia) was 4640 nM and the TGI (K-562 leukemia) was 31.3 µM.

C=C1C(=O)O[C@H]2[C@H]1CC/C(COC(=O)CCCc1c[nH]c3ccccc13)=C\CC[C@@]1(C)O[C@@H]21 showed a GI50 (U251 CNS) of 1950 nM, a TGI (U251 CNS) of 3670 nM and a GI50 (CCRF-CEM leukemia) of 715 nM. The TGI (CCRF-CEM leukemia) was 7.5 µM, the GI50 (HS 578T breast) was 3.19 µM and the TGI (HS 578T breast) was 20.9 µM. The GI50 (UO-31 renal) was 1410 nM, the TGI (UO-31 renal) was 2.73 µM and the GI50 (MCF7 breast) was 1420 nM. The TGI (MCF7 breast) was 3.85 µM, the GI50 (NCI-H226 lung) was 2.04 µM and the TGI (NCI-H226 lung) was 4.38 µM. For the same molecule, the GI50 (SK-MEL-2 melanoma) was 1.96 µM, the TGI (SK-MEL-2 melanoma) was 5.39 µM and the GI50 (RXF 393 renal) was 1460 nM. The TGI (RXF 393 renal) was 2.85 µM, the GI50 (NCI-H23 lung) was 1.72 µM and the TGI (NCI-H23 lung) was 3.47 µM. It also gave a GI50 (K-562 leukemia) of 2600 nM and a TGI (K-562 leukemia) of 11 µM.

In the case of CC(=O)OC12c3ccccc3-c3ccccc3C1C(C(=O)O)C2C(=O)O (stereo unspecified), the TGI (U251 CNS) is reported as > 10000 nM, the TGI (CCRF-CEM leukemia) is reported as > 10 µM and the TGI (HS 578T breast) is reported as > 10 µM. The TGI (UO-31 renal) was > 10 µM, the TGI (MCF7 breast) was > 10 µM and the TGI (NCI-H226 lung) was > 10 µM. The TGI (SK-MEL-2 melanoma) was > 10 µM, the TGI (RXF 393 renal) was > 10 µM and the TGI (NCI-H23 lung) was > 10 µM. The TGI (K-562 leukemia) was > 10 µM.

CCC1(OC(=O)CN)C(=O)OCc2c1cc1n(c2=O)Cc2cc3ccccc3nc2-1 (stereo unspecified) was tested, and the GI50 (U251 CNS) was 11.8 nM, the TGI (U251 CNS) was 333 nM and 636 nM and the GI50 (CCRF-CEM leukemia) was 1.16 nM. For the same molecule, the TGI (CCRF-CEM leukemia) was 0.534 µM and 0.677 µM, the TGI (HS 578T breast) was > 90.7 µM and the TGI (UO-31 renal) was 0.174 µM. For the same molecule, the GI50 (MCF7 breast) was 25.1 nM, the GI50 (NCI-H226 lung) was 0.0151 µM and the TGI (NCI-H226 lung) was 0.15 µM and 0.0638 µM. The GI50 (SK-MEL-2 melanoma) was 0.492 µM, the TGI (SK-MEL-2 melanoma) was 0.932 µM and 0.407 µM and the GI50 (RXF 393 renal) was 148 nM. For the same molecule, the TGI (RXF 393 renal) was 0.88 µM and 0.307 µM, the GI50 (NCI-H23 lung) was 0.0191 µM and the TGI (NCI-H23 lung) was 0.15 µM and 0.0424 µM. For the same molecule, the GI50 (K-562 leukemia) was 170 nM and the TGI (K-562 leukemia) was > 100 µM.
